The record followed here is publication PMC9079959, “Substituted spirooxindole derivatives as potent anticancer agents through inhibition of phosphodiesterase 1” (RSC Advances, 2018).

The target of one data set is phosphodiesterase 1. The class given is biochemical, snake.
The test system of the next data set is PC-3 cells. The experiment in a line: MTT cytotoxicity assay, prostate cancer cell line PC-3. The format is cell-based. As to conditions: for IC50: Homo sapiens, PC-3, MTT, 48 h; for SI (selectivity index): IC50 normal (VERO-B) / IC50 cancer (PC-3). As to the method:
(§1) The cytotoxic activity of the compounds was tested against different mammalian cancer cells, prostate carcinoma cells (PC-3), hepatocellular carcinoma (HepG2) and colon cancer cells (HCT-116). African green monkey kidney cells (Vero-B) were used as normal cells to study the selectivity towards the cancer cells. The cell lines were obtained from the American Type Culture Collection (ATCC). The cells were cultivated at 37 °C and 10% CO2 in DMEM (Lonza, Germany) medium supplemented with 10% fetal bovine serum (Lonza, Germany), 100 IU ml^−1 penicillin and 100 μg ml^−1 streptomycin (Lonza, Germany). […] The spirooxindole derivatives were solubilized in DMSO and stored at −20 °C. The viability of the cells was quantified using 3-(4,5-dimethylthiazol-2-yl)-2,5-diphenyl tetrazolium bromide (MTT), which measures the activity of mitochondrial succinate dehydrogenase in viable cells.[45,46]
(§2) The cells were seeded in 96-well plates at a concentration of 5 × 10^4 cells per ml (100 μl per well). […] DMSO was used as a negative control (0.1%). The cells were incubated for 48 h. After that, 15 μl of MTT (5 mg ml^−1 in PBS) was added to each well and incubated for another 4 h. The formazan crystals were solubilized by 100 μl of acidified SDS solution (10% SDS/0.01 N HCl in PBS). The absorbance was measured after 14 h of incubation at 37 °C and under 5% CO2 at 570 nm by using a BioTek microplate reader. Each experiment was repeated 3 times and a standard deviation was calculated (SD±). […] The growth of the cells was monitored and the images were acquired by Gx microscopes (GXMGXD202 Inverted Microscope) at 10× magnification.
A general note: Tetrazolium dyes change colour on reduction, which living cells bring about.

In another data set the test system is Vero-B cells. The experiment in a line: MTT cytotoxicity assay, normal cells Vero-B. As to conditions: Chlorocebus sabaeus, Vero B, 48 h. The class given is cell-based, African green monkey. The procedure: as §1, §2
The next data set deals with HepG2 cells. Briefly: MTT cytotoxicity assay, hepatocellular carcinoma HepG2. The format is cell-based. As to conditions: for IC50: Homo sapiens, HepG2, MTT, 48 h; for SI (selectivity index): IC50 normal (VERO-B) / IC50 cancer (HepG2). The procedure: as §1, §2
In a further data set the test system is HCT-116 cells. Briefly: MTT cytotoxicity assay, colorectal cancer cell line HCT-116. The format is cell-based. As to conditions: for IC50: Homo sapiens, HCT-116, MTT, 48 h; for SI (selectivity index): IC50 normal (VERO-B) / IC50 cancer (HCT-116). As to the method:
as §1, §2

The mark [1] stands for this setting: ± SD of 3 experiments, read-out: PC-3 (IC50).
[2] abbreviates: read-out: PC-3 (IC50, μg ml^−1).
[3] abbreviates: ± SD of 3 experiments, read-out: HepG2 (IC50).
Where [4] appears, read: read-out: HepG2 (IC50, μg ml^−1).
[5] abbreviates: ± SD of 3 experiments, read-out: HCT-116 (IC50).
Setting [6] is: read-out: HCT-116 (IC50, μg ml^−1).

Structures are written as SMILES. Where “and” joins values, the source holds several entries; their conditions need not be identical. Equal values may be shown once. Read-outs that look alike come from different tables or passages of the source. Where only a bound is given, the exact number is not on record here.

Protocol for phosphodiesterase 1: A phosphodiesterase I inhibition assay was performed using snake venom according to a previously reported method with minute variations. Briefly, 33 mM Tris–HCl buffer of pH 8.8 (97 μl), 30 mM magnesium acetate with an enzyme concentration of 0.000742 U well^−1 and 0.33 mM bis-(p-nitrophenyl) phosphate (Sigma N-3002, 60 μl) as substrate were taken. […] After a pre-incubation period of 30 min, the enzyme with the test samples was observed spectrophotometrically for enzyme activity on a microtiter plate reader at 37 °C by following the rate of change in OD min^−1 at 410 nm of the p-nitrophenol released from p-nitrophenyl phosphate. All assays were processed in triplicate.[47]

With `O=C(O)CN(CCN(CC(=O)O)CC(=O)O)CC(=O)O` [EDTA, reference compound], 274 ± 0.007 µM corresponded to half-maximal inhibition against phosphodiesterase 1 (positive control) (IC50).
Regarding `O=C(c1c[nH]c2ccccc12)[C@@H]1C(c2ccc(Cl)cc2Cl)[C@@H]2CCCN2[C@@]12C(=O)Nc1ccccc12` (stereo partly drawn) [4d, (2′R,3S,7a′S)-1′-(2,4-Dichlorophenyl)-2′-(1H-indole-3-carbonyl)-1′,2′,5′,6′,7′,7a′-hexahydrospiro[indoline-3,3′-pyrrolizin]-2-one], the melting point (commonly the temperature, or range, at which the solid turns liquid) lay within 149 to 151 °C. Besides, the IC50 (as a rule, the midpoint of a concentration-inhibition curve) with PC-3 cells (setting [1]) worked out at 2 ± 0.125 µM. Further, the IC50 in the data set with PC-3 cells (setting [2]) turned out to be 1 mg/L. Also, the “inhibitory activity against phosphodiesterase enzyme” value with phosphodiesterase 1 (at 2 μM) amounted to 74.2%. Moreover, in the data set on Vero-B cells, half-maximal inhibition (IC50) was put at 9 µM. Moreover, the 50% inhibitory concentration (IC50) with HepG2 cells (setting [3]) is 2 ± 0.1 µM. Moreover, the IC50 in the data set with HepG2 cells (setting [4]) is 1 mg/L. The IC50 with HCT-116 cells (setting [5]) turned out to be 9 ± 0.6 µM. The IC50 in the data set with HCT-116 cells (setting [6]) worked out at 4.6 mg/L. In the data set with HCT-116 cells, the “SI (selectivity index)” value was > 1 and 1.
`O=C(c1c[nH]c2ccccc12)[C@@H]1C(c2ccc(Br)cc2)[C@@H]2CCCN2[C@@]12C(=O)Nc1ccccc12` (stereo partly drawn) [4f, (2′R,3S,7a′S)-1′-(4-Bromophenyl)-2′-(1H-indole-3-carbonyl)-1′,2′,5′,6′,7′,7a′-hexahydrospiro[indoline-3,3′-pyrrolizin]-2-one] came in with a melting point of 101 to 102 °C. In addition, the IC50 in the data set on PC-3 cells (setting [1]) was determined as 16.3 ± 2.5 µM. Further, the IC50 in the data set on PC-3 cells (setting [2]) stood at 8.6 mg/L. Further, the “SI (selectivity index)” value in the data set with PC-3 cells is reported as 1.8. For the same compound, in the data set on Vero-B cells, the IC50 is 30 µM. Besides, the IC50 with HepG2 cells (setting [3]) amounted to 12 ± 1.5 µM. The half-maximal inhibitory concentration (IC50) in the data set with HepG2 cells (setting [4]) is 6.3 mg/L. In the data set on HepG2 cells, the “SI (selectivity index)” value is 2.5. Also, in the data set on HCT-116 cells (setting [5]), the IC50 was 21 ± 1.3 µM. The IC50 in the data set with HCT-116 cells (setting [6]) came out at 11 mg/L. For the same compound, the “SI (selectivity index)” value in the data set on HCT-116 cells is recorded as 1.4.
`COc1cc(C2[C@@H](C(=O)c3c[nH]c4ccccc34)[C@]3(C(=O)Nc4ccccc43)N3CCC[C@@H]23)cc(OC)c1OC` (stereo partly drawn) [4n, (2′R,3S,7a′S)-2′-(1H-Indole-3-carbonyl)-1′-(3,4,5-trimethoxyphenyl)-1′,2′,5′,6′,7′,7a′-hexahydrospiro[indoline-3,3′-pyrrolizin]-2-one]: the melting point fell in the range of 179 to 181 °C. In addition, in the data set on PC-3 cells (setting [1]), the IC50 stood at 17 ± 2 µM. Moreover, the IC50 with PC-3 cells (setting [2]) was determined as 9.4 mg/L. Besides, in the data set on PC-3 cells, the “SI (selectivity index)” value is 2.4. In addition, the IC50 with Vero-B cells was determined as 40 µM. The IC50 in the data set on HepG2 cells (setting [3]) was found to be 28 ± 2 µM. Further, the IC50 in the data set on HepG2 cells (setting [4]) was found to be 15.7 mg/L. In the data set on HepG2 cells, the “SI (selectivity index)” value is listed as 1.4. The IC50 in the data set with HCT-116 cells (setting [5]) amounted to 20 ± 1.25 µM. In addition, the IC50 in the data set on HCT-116 cells (setting [6]) came to 11.1 mg/L. Besides, in the data set on HCT-116 cells, the “SI (selectivity index)” value was found to be 2.
In the case of `O=C(c1c[nH]c2ccccc12)[C@@H]1C(c2cccs2)[C@@H]2CCCN2[C@@]12C(=O)Nc1ccccc12` (stereo partly drawn) [4l, (2′R,3S,7a′S)-2′-(1H-Indole-3-carbonyl)-1′-(thiophen-2-yl)-1′,2′,5′,6′,7′,7a′-hexahydrospiro[indoline-3,3′-pyrrolizin]-2-one], the melting point fell in the range of 157 to 159 °C. Further, the IC50 in the data set on PC-3 cells (setting [1]) worked out at 29 ± 3 µM. Further, the IC50 in the data set on PC-3 cells (setting [2]) came out at 13 mg/L. Moreover, the “SI (selectivity index)” value in the data set with PC-3 cells was 2.1. The compound further had an IC50 in the data set with Vero-B cells of 60 µM. The IC50 with HepG2 cells (setting [3]) amounted to 50 ± 3 µM. Moreover, the IC50 in the data set with HepG2 cells (setting [4]) came to 22.7 mg/L. The “SI (selectivity index)” value in the data set with HepG2 cells was 1.2. The IC50 in the data set on HCT-116 cells (setting [5]) stood at 50 ± 3.5 µM. In addition, in the data set with HCT-116 cells (setting [6]), the IC50 was 22.7 mg/L. Besides, the “SI (selectivity index)” value in the data set on HCT-116 cells is on record as 1.2.
